Source: patent publication US20120214822A1 (ASTRAZENECA AB, priority 2007, published 2012)

The compounds below were run against human active recombinant p38α-6His tagged (Homo sapiens, UniProt Q16539) (assay: P38 Alpha Enzyme Assay (AlphaScreen, biotinylated-ATF2 substrate)). Conditions: p38 alpha enzyme inhibition; means of replicate determinations; 4 h pre-incubation at 37° C.; SD of assay 0.2-0.3 log units.
Type: biochemical
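Also: 0.5 nM final p38α, reaction started with ATP and run 45 min at 37 °C, phospho-ATF2 read by antibody-based AlphaScreen, background wells quenched with EDTA before ATP.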

Chain of human active recombinant p38α-6His tagged (Q16539 whole entry): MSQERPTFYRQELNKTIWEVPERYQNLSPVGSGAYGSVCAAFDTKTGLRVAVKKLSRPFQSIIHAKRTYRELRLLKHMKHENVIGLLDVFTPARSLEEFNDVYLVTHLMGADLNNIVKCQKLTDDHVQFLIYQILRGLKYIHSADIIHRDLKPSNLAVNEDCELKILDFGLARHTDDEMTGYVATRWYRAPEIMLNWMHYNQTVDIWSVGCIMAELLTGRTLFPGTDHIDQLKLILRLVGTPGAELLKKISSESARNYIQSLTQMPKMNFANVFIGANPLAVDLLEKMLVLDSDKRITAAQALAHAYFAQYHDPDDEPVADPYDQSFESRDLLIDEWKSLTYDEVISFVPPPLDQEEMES

In order of falling pIC50:
1. Cc1c(F)cc(C(=O)NC2CC2)cc1-n1ccnc(NC2(c3ccccc3OCCNC[C@H](C)O)CC2)c1=O [Example 263, N-Cyclopropyl-3-fluoro-5-[3-[[1-[2-[2-[[(2S)-2-hydroxypropyl]amino]ethoxy]phenyl]cyclopropyl]amino]-2-oxo-1(2H)-pyrazinyl]-4-methyl-benzamide]  10.3
2. CNC[C@@H](O)COc1ccccc1C1(Nc2nccn(-c3cc(C(=O)NC4CC4)ccc3C)c2=O)CC1 [Example 301, N-Cyclopropyl-3-[3-{[1-(2-{[(2R)-2-hydroxy-3-(methylamino)propyl]oxy}phenyl)cyclopropyl]amino}-2-oxopyrazin-1(2H)-yl]-4-methylbenzamide]  10.1
3. CNCCOc1ccccc1C1(Nc2nccn(-c3cc(C(=O)NOC)ccc3C)c2=O)CC1 [Example 317, N-Methoxy-4-methyl-3-{3-[(1-{2-[2-(methylamino)ethoxy]phenyl}cyclopropyl)amino]-2-oxopyrazin-1(2H)-yl}benzamide]  10.1
4. CCNCCOc1ccccc1C1(Nc2nccn(-c3cc(C(=O)NC4CC4)ccc3C)c2=O)CCC1 [Example 269, N-Cyclopropyl-3-[3-[[1-[2-[2-(ethylamino)ethoxy]phenyl]cyclobutyl]amino]-2-oxo-1(2H)-pyrazinyl]-4-methyl-benzamide]  9.9
5. Cc1c(F)cc(C(=O)NC2CC2)cc1-n1ccnc(NC2(c3ccccc3OCCNC[C@@H](C)O)CC2)c1=O [Example 265, N-Cyclopropyl-3-fluoro-5-[3-[[1-[2-[2-[[(2R)-2-hydroxypropyl]amino]ethoxy]phenyl]cyclopropyl]amino]-2-oxo-1(2H)-pyrazinyl]-4-methyl-benzamide]  9.7
6. Cc1ccc(C(=O)NC2CC2)cc1-n1ccnc(NC2(c3ccccc3OCCNCCF)CC2)c1=O [Example 245, N-Cyclopropyl-3-[3-[[1-[2-[2-[(2-fluoroethyl)amino]ethoxy]phenyl]cyclopropyl]amino]-2-oxo-1(2H)-pyrazinyl]-4-methyl-benzamide]  9.5
7. CNCCOc1c(F)cccc1C1(Nc2nccn(-c3cc(C(=O)NC4CC4)ccc3C)c2=O)CC1 [Example 287, N-Cyclopropyl-3-{3-[(1-{3-fluoro-2-[2-(methylamino)ethoxy]phenyl}cyclopropyl)amino]-2-oxopyrazin-1(2H)-yl}-4-methylbenzamide]  9.3
8. Cc1ccc(C(=O)NC2CC2)cc1-n1ccnc(NC(C)(C)c2ccccc2OCCN2CCN(C)CC2)c1=O [Example 202, N-Cyclopropyl-4-methyl-3-[3-[[1-methyl-1-[2-[2-(4-methyl-1-piperazinyl)ethoxy]phenyl]ethyl]amino]-2-oxo-1(2H)-pyrazinyl]-benzamide]  9.2
9. Cc1ccc(C(=O)NC2CC2)cc1-n1ccnc(N[C@@H](c2ccccc2)[C@@H](C)CNCCN(C)C)c1=O [Example 155, N-Cyclopropyl-3-[3-[[(1R,2S)-3-[[2-(dimethylamino)ethyl]amino]-2-methyl-1-phenylpropyl]amino]-2-oxo-1(2H)-pyrazinyl]-4-methyl-benzamide]  9.1
10. Cc1ccc(C(=O)NC2CC2)cc1-n1ccnc(N[C@@H](c2ccccc2)[C@@H](C)CN2CCC(CO)CC2)c1=O [Example 151, N-Cyclopropyl-3-[3-[[(1R,2S)-3-[4-(hydroxymethyl)-1-piperidinyl]-2-methyl-1-phenylpropyl]amino]-2-oxo-1(2H)-pyrazinyl]-4-methyl-benzamide]  9.1
11. Cc1ccc(C(=O)NC2CC2)cc1-n1ccnc(NC(C)(C)c2ccccc2OCCN2CCCCC2)c1=O [Example 201, N-Cyclopropyl-4-methyl-3-[3-[[1-methyl-1-[2-[2-(1-piperidinyl)ethoxy]phenyl]ethyl]amino]-2-oxo-1(2H)-pyrazinyl]-benzamide]  9.1
12. Cc1ccc(C(=O)NC2CC2)cc1-n1ccnc(NC2(c3ccccc3OCCN3CCN(CCO)CC3)CC2)c1=O [Example 232, N-Cyclopropyl-3-[3-[[1-[2-[2-[4-(2-hydroxyethyl)-1-piperazinyl]ethoxy]phenyl]cyclopropyl]amino]-2-oxo-1(2H)-pyrazinyl]-4-methyl-benzamide]  9.1
13. COC[C@H]1CCCN1C[C@H](C)[C@@H](Nc1nccn(-c2cc(C(=O)NC3CC3)ccc2C)c1=O)c1ccccc1 [Example 147, N-Cyclopropyl-3-[3-[[(1R,2S)-3-[(2R)-2-(methoxymethyl)-1-pyrrolidinyl]-2-methyl-1-phenylpropyl]amino]-2-oxo-1(2H)-pyrazinyl]-4-methyl-benzamide]  9
14. Cc1ccc(C(=O)NC2CC2)cc1-n1ccnc(N[C@@H](c2ccccc2)[C@@H](C)CN2CCC[C@@H](O)C2)c1=O [Example 186, N-Cyclopropyl-3-[3-[[(1R,2S)-3-[(3R)-3-hydroxy-1-piperidinyl]-2-methyl-1-phenylpropyl]amino]-2-oxo-1(2H)-pyrazinyl]-4-methyl-benzamide]  9
15. Cc1ccc(C(=O)NC2CC2)cc1-n1ccnc(NC(C)(C)c2ccccc2OCCCNCC(F)(F)F)c1=O [Example 207, N-Cyclopropyl-4-methyl-3-[3-[[1-methyl-1-[2-[3-[(2,2,2-trifluoroethyl)amino]propoxy]phenyl]ethyl]amino]-2-oxo-1(2H)-pyrazinyl]-benzamide]  8.9
16. Cc1ccc(C(=O)NC2CC2)cc1-n1ccnc(N[C@@H](c2ccccc2)[C@@H](C)CN2CCC(O)CC2)c1=O [Example 152, N-Cyclopropyl-3-[3-[[(1R,2S)-3-(4-hydroxy-1-piperidinyl)-2-methyl-1-phenylpropyl]amino]-2-oxo-1(2H)-pyrazinyl]-4-methyl-benzamide]  8.9
17. Cc1cccc([C@H](Nc2nccn(-c3cc(C(=O)NC4CC4)ccc3C)c2=O)[C@@H](C)CN2CCCC2)c1 [Example 276, N-Cyclopropyl-3-[3-[[(1R,2S)-1-(3-methylphenyl)-2-methyl-3-(1-pyrrolidinyl)propyl]amino]-2-oxo-1(2H)-pyrazinyl]-4-methyl-benzamide]  8.8
18. Cc1ccc(C(=O)NC2CC2)cc1-n1ccnc(N[C@@H](c2ccccc2)[C@@H](C)CN2CCC(N(C)C)CC2)c1=O [Example 176, N-Cyclopropyl-3-[3-[[(1R,2S)-3-[4-(dimethylamino)-1-piperidinyl]-2-methyl-1-phenylpropyl]amino]-2-oxo-1(2H)-pyrazinyl]-4-methyl-benzamide]  8.7
19. Cc1ccc(C(=O)NC2CC2)cc1-n1ccnc(N[C@@H](c2cccc3ccccc23)[C@@H](C)CN2CCCC2)c1=O [Example 144, N-Cyclopropyl-4-methyl-3-[3-[[(1R,2S)-2-methyl-1-(1-naphthalenyl)-3-(1-pyrrolidinyl)propyl]amino]-2-oxo-1(2H)-pyrazinyl]-benzamide]  7.9
20. Cc1ccc(C(=O)NC2CC2)cc1-n1ccnc(N[C@H](CO)c2ccccc2)c1=O [Example 80, N-Cyclopropyl-3-[3-[[(1S)-2-hydroxy-1-phenylethyl]amino]-2-oxo-1(2H)-pyrazinyl]-4-methyl-benzamide]  7.9
21. Cc1ccc(C(=O)NC2CC2)cc1-n1ccnc(NCc2ccccc2O)c1=O [Example 68, N-Cyclopropyl-3-[3-[[(2-hydroxyphenyl)methyl]amino]-2-oxo-1(2H)-pyrazinyl]-4-methyl-benzamide]  7.6
22. CONC(=O)c1ccc(C)c(-n2ccnc(C3CCCC3)c2=O)c1 [Example 127, 3-(3-cyclopentyl-2-oxo-1(2H)-pyrazinyl)-N-methoxy-4-methyl-benzamide]  7.3
23. Cc1ccc(C(=O)NC2CC2)cc1-n1ccnc(N[C@H]2C[C@@H]2c2ccccc2)c1=O [Example 47, N-Cyclopropyl-4-methyl-3-[2-oxo-3-[[(1S,2R)-2-phenylcyclopropyl]amino]-1(2H)-pyrazinyl]-benzamide]  7.2
24. Cc1ccc(C(=O)NC2CC2)cc1-n1ccnc(NCc2cccc(CN)c2)c1=O [Example 124, 3-[3-[[[3-(Aminomethyl)phenyl]methyl]amino]-2-oxo-1(2H)-pyrazinyl]-N-cyclopropyl-4-methyl-benzamide]  6.9
25. Cc1ccc(C(=O)NC2CC2)cc1-n1ccnc(NC[C@H](O)c2ccccc2)c1=O [Example 55, N-Cyclopropyl-3-[3-[[(2R)-2-hydroxy-2-phenylethyl]amino]-2-oxo-1(2H)-pyrazinyl]-4-methyl-benzamide]  6.5
26. Cc1ccc(C(=O)NC2CC2)cc1-n1ccnc(NC[C@@H](O)c2ccccc2)c1=O [Example 56, N-Cyclopropyl-3-[3-[[(2S)-2-hydroxy-2-phenylethyl]amino]-2-oxo-1(2H)-pyrazinyl]-4-methyl-benzamide]  6.4
27. Cc1ccc(C(=O)NC2CC2)cc1-n1cc(Br)nc(N2CCN(C)CC2c2ccccc2)c1=O (centres unmarked) [Example 120, 3-[5-bromo-3-(4-methyl-2-phenyl-1-piperazinyl)-2-oxo-1(2H)-pyrazinyl]-N-cyclopropyl-4-methyl-benzamide]  6.4
28. Cc1ccc(C(=O)NC2CC2)cc1-n1ccnc(NCc2cccnc2)c1=O [Example 24, N-Cyclopropyl-4-methyl-3-[2-oxo-3-[(3-pyridinylmethyl)amino]-1(2H)-pyrazinyl]-benzamide]  6.3
29. Cc1ccc(C(=O)NC2CC2)cc1-n1cc(Cl)nc(NCCCN(C)C)c1=O [Example 108, 3-[5-Chloro-3-[[3-(dimethylamino)propyl]amino]-2-oxo-1(2H)-pyrazinyl]-N-cyclopropyl-4-methyl-benzamide]  6.3
30. Cc1ccc(C(=O)NC2CC2)cc1-n1ccnc(NCc2cnc3ccccc3c2)c1=O [Example 28, N-Cyclopropyl-4-methyl-3-[2-oxo-3-[(3-quinolinylmethyl)amino]-1(2H)-pyrazinyl]-benzamide]  6.2
31. Cc1ccc(C(=O)NC2CC2)cc1-n1ccnc(NCCCN2CCN(C)CC2)c1=O [Example 4, N-Cyclopropyl-4-methyl-3-[3-[[3-(4-methyl-1-piperazinyl)propyl]amino]-2-oxo-1(2H)-pyrazinyl]-benzamide]  6.1

Work on `Cc1ccc(C(=O)NC2CC2)cc1-n1ccnc(N2CCc3ccccc3C2)c1=O` [Example 30, N-Cyclopropyl-3-[3-(3,4-dihydro-2(1H)-isoquinolinyl)-2-oxo-1(2H)-pyrazinyl]-4-methyl-benzamide] yielded an IC50 of 126 nM.
